Results reported in patent US20140080772A1, “TREATMENTS FOR MELANOMA” (The Board of Regents of the University of Texas System, priority 2012, published 2014).
pIC50: −log10 of the molar value. Like-named read-outs stand apart in the source and are kept apart here.

Key:
[1] = tested on: M214 metastatic melanoma cells; assay type: in vivo, NSG mice; conditions: digitoxin 0.5 mg/kg/day; dacarbazine 5 mg/kg every other day; alone or in combination
Method: M214 metastatic melanoma cells were implanted in s.c. tissue on right flanks of NSG mice. When tumors became palpable, mice were randomized to four different treatments. […] Control mice received equivalent volume of DMSO. […] Tumors were measured every 2-3 day with calipers. Mean^±SD is reported (*P<0.05, **P<0.005, ***P<0.0005, ****P<0.0001, ns: not significant; two-tailed Student's t test). […] The statistical significance of differences between mean values was assessed by the Student's t-test.
In these experiments, metastatic melanoma cells were injected subcutaneously in the right flanks of immunocompromised NSG mice. When tumors became palpable, mice were randomized to four different treatments. […] Control mice received equivalent volume of DMSO.

[2] = tested on: primary melanomas (M715, M711, M741 and M405); experiment: Dose response viability assay (CellTiter-Glo) on primary human melanoma cells; assay type: cell-based; conditions: 72 hr, triplicate
Method: (§1) Melanomas and hUCB were treated with 50 μM of cardiac glycosides or DMSO for 72 h in triplicates. Viability was measured with CellTiter-Glo. […] All error bars denote SD.
(§2) In these in vitro assays, cells were treated with various doses of cardiac glycosides or DMSO for 72 hr in triplicate. Viability was measured with CellTiter-Glo.
(§3) Again, cells were treated in vitro with various doses of RO 31-8220 or DMSO for 72 hr in triplicates. Viability was measured with CellTiter-Glo.

[3] = tested on: M481 metastatic melanoma cells; experiment: M481 melanoma xenograft tumor growth in NSG mice; assay type: in vivo
Method: M481 metastatic melanoma cells were implanted in s.c. tissue on right flanks of NSG mice. […] Tumors were measured every 2-3 day with calipers.
(FIG. 6A) M481 efficiently metastasizing melanoma cells were implanted in s.c. tissue on right flanks of NSG mice. […] Tumors were measured every 2-3 day with calipers. Mean±SD is reported.
Subcutaneous injections of human melanoma cells were performed in each flank and the interscapular region of NOD.CB17-Prkdcscid Il2rgtm1Wjl/SzJ (NOD/SCID IL2Rγ^null, NSG) mice (Jackson Laboratories) in a final volume of 50 μl.
In these experiments metastatic melanoma cells were implanted in s.c. tissue on right flanks of NSG mice. […] Tumors were measured every 2-3 day with calipers and bioluminescence imaging was performed at day 14.
To address whether inhibition of Lyn kinase can block the ability of melanoma cells to grow in our xenograft model, they performed an in vivo drug treatment. NSG mice were injected with a 100-cell dose of a metastatic melanoma, M481, which expressed a GFP-luciferase construct. […] We tested two different doses, 4 mg/kg body mass/day and 20 mg/kg/day. Control mice were injected with 5% DMSO solution.

[4] = tested on: human melanocytes (hMEL) and human umbilical cord blood cells (hUCB)
Method: as §1, §2, §3

WT Bcr-Abl [5] = target: T1, WT Bcr-Abl (Homo sapiens, UniProt P00519); conditions: read-out: IC50, Bcr-Abl autophosphorylation and downstream kinase activity; 293T cells; cited from earlier work
Target sequence in this assay (P00519 28-1130 limits assumed): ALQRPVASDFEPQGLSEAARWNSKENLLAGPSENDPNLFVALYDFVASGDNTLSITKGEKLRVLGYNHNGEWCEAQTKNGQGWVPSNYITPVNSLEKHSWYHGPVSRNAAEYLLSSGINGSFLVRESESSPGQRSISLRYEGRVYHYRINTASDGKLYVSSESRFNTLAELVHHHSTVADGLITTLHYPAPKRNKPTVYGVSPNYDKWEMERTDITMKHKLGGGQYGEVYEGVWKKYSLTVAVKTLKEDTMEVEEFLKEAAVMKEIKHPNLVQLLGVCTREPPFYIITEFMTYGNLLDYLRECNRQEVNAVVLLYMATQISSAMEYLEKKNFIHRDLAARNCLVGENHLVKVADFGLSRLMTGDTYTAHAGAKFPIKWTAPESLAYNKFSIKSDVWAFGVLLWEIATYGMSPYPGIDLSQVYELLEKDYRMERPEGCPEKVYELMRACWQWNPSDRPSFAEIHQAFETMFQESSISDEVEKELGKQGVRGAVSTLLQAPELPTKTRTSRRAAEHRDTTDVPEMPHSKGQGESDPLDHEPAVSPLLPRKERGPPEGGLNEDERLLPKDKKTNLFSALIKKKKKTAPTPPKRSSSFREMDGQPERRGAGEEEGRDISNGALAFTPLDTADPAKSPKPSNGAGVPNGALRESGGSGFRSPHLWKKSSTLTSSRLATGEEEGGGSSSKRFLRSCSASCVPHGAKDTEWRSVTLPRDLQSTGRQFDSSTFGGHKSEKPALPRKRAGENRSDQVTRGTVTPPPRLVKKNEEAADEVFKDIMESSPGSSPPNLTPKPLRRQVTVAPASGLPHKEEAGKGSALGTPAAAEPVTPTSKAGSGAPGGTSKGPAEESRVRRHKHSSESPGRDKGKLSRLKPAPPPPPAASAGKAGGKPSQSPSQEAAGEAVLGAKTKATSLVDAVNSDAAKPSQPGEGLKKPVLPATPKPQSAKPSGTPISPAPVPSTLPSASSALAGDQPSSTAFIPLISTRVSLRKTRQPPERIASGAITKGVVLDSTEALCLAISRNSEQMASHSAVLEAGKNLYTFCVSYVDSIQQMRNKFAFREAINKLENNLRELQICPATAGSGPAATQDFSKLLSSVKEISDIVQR

WT Bcr-Abl [6] = target: T1, WT Bcr-Abl; conditions: read-out: IC50, Bcr-Abl autophosphorylation and downstream kinase activity; K562 cells; cited from earlier work
Target sequence in this assay (P00519 with tags, fused parts or gaps): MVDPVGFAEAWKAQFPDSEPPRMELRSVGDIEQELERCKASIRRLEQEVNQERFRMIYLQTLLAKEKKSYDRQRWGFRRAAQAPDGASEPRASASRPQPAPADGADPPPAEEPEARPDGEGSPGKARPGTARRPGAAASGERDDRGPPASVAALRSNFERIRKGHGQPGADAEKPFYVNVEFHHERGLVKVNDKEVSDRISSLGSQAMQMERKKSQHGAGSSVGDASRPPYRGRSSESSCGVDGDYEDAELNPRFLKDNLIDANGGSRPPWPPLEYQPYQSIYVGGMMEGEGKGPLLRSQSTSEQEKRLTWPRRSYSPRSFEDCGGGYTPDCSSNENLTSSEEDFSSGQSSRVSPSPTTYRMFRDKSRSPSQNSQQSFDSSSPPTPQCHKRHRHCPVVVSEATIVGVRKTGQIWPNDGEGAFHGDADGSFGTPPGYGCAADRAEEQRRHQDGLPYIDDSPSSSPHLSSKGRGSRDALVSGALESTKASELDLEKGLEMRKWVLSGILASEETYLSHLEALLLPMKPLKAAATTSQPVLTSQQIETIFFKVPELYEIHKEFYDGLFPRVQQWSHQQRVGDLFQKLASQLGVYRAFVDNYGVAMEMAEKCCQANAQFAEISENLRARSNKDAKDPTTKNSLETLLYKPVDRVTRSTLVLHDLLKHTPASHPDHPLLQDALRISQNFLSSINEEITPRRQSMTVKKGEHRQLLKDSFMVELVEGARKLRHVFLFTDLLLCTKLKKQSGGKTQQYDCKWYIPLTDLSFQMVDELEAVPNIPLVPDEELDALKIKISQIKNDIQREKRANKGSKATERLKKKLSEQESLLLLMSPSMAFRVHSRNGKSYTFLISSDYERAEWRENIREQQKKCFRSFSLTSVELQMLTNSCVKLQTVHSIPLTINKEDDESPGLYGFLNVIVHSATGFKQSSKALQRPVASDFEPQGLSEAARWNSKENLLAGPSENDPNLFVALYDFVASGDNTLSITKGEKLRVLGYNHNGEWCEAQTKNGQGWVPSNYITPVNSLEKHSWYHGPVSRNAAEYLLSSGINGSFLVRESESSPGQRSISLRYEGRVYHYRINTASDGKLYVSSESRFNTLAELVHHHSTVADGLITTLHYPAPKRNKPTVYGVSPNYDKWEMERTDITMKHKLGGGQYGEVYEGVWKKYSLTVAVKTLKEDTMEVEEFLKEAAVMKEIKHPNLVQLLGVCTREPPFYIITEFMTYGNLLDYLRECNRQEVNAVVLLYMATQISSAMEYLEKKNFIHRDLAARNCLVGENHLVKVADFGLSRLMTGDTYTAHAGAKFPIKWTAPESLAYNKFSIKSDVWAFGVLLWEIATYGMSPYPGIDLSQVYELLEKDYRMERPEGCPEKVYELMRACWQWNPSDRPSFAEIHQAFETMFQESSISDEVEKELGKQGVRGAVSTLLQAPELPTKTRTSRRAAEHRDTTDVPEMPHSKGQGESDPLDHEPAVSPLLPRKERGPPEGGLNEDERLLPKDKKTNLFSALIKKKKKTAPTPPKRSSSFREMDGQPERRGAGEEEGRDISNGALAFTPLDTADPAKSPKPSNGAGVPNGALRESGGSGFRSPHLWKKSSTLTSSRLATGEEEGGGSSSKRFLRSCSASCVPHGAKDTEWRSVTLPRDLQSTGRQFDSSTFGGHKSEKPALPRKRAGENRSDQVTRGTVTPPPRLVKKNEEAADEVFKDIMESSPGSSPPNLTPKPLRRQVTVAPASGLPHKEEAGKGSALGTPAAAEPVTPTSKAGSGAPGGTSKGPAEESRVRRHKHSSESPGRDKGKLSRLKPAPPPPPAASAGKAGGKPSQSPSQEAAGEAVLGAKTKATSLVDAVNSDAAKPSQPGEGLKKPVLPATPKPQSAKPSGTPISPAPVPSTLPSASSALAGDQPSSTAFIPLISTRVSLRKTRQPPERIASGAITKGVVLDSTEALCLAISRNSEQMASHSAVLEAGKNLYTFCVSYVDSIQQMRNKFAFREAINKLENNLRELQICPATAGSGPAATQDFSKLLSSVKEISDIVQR

KU812 = conditions: 20 mg/kg/day; cited from earlier work
[7] = mouse, in vivo; cited from earlier work
MAPKAP-K1b = MAPKAP-K1b (Homo sapiens, UniProt P51812); conditions: cited from earlier work
Sequence of MAPKAP-K1b (P51812 whole entry, species assumed): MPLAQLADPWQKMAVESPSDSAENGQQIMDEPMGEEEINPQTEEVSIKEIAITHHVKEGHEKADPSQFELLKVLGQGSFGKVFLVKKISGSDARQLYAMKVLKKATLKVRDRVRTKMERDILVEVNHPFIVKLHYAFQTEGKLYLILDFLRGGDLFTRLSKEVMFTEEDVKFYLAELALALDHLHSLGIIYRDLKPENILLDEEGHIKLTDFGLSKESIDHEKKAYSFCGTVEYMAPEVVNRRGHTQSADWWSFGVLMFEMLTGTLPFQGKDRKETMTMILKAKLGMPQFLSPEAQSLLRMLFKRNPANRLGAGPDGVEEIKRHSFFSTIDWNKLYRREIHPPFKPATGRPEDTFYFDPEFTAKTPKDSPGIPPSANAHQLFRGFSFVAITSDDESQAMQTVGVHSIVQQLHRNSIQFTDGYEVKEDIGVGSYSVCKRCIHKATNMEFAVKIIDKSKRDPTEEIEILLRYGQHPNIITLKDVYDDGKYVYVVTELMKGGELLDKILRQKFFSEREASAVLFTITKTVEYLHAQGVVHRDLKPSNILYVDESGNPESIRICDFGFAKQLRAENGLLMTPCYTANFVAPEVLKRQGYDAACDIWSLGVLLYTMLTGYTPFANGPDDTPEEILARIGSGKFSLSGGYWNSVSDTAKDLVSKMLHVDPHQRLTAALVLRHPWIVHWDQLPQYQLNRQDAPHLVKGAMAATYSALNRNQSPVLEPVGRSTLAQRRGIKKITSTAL

[8] = tested on: voltage-dependent Na+ channels; conditions: cited from earlier work
[9] = tested on: JNK, glycogen synthase, MAPK, ERK2; conditions: rat adipocytes and L6 myotubes; cited from earlier work
S6K1 = S6K1 (Homo sapiens, UniProt P23443); conditions: cited from earlier work
Sequence of S6K1 (P23443 whole entry, species assumed): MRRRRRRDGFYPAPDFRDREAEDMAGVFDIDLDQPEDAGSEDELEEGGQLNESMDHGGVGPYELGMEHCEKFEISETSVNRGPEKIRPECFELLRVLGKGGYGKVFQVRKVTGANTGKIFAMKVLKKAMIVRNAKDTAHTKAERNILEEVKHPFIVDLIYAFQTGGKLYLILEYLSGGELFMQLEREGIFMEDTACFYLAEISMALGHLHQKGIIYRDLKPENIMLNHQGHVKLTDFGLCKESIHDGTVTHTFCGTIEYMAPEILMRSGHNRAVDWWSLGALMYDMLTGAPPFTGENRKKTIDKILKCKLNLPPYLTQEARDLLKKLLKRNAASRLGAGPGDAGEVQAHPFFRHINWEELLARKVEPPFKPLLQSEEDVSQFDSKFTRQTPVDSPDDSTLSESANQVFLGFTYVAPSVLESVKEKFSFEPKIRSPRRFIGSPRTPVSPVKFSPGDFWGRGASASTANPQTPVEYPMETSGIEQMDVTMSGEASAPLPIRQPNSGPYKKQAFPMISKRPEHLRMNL

PKCα = PKCα (Homo sapiens, UniProt P17252); conditions: cited from earlier work
[10] = in vivo; cited from earlier work
[11] = 72 hr, triplicate, CellTiter-Glo

Q: Which “growth of human melanoma xenografts” value [1] does the source give for `C[C@H]1O[C@@H](O[C@H]2[C@@H](O)C[C@H](O[C@H]3[C@@H](O)C[C@H](O[C@H]4CC[C@@]5(C)[C@H](CC[C@@H]6[C@@H]5CC[C@]5(C)[C@@H](C7=CC(=O)OC7)CC[C@]65O)C4)O[C@@H]3C)O[C@@H]2C)C[C@H](O)[C@@H]1O` [digitoxin] here?
A: slowed the growth

Q: And the “toxicity to primary melanomas (viability)” value [2]?
A: toxic to all tested primary melanomas

Q: And the tumor growth ([3]; digitoxin 0.5 mg/kg i.p. vs DMSO)?
A: inhibited the growth

Q: What about the “toxicity to normal cells (viability)” value [4, 11] of the same compound?
A: not to normal cells

Q: For `C[C@H]1O[C@@H](O[C@H]2[C@@H](O)C[C@H](O[C@H]3[C@@H](O)C[C@H](O[C@H]4CC[C@@]5(C)[C@H](CC[C@@H]6[C@@H]5CC[C@]5(C)[C@@H](C7=CC(=O)OC7)[C@@H](O)C[C@]65O)C4)O[C@@H]3C)O[C@@H]2C)C[C@H](O)[C@@H]1O` [gitoxin], which “toxicity to primary melanomas (viability)” value [2] is on record?
A: toxic to all tested primary melanomas

Q: And the “toxicity to normal cells (viability)” value [4, 11]?
A: not to normal cells

Q: With `Cc1ccc(NC(=O)c2ccc(CN3CC[C@H](N(C)C)C3)c(C(F)(F)F)c2)cc1Nc1nccc(-c2cncnc2)n1` [Bafetinib, bafetinib] as the compound, how does the pIC50 (WT Bcr-Abl [5]) read?
A: 7.66

Q: And the pIC50 (WT Bcr-Abl [6])?
A: 7.96

Q: What about the adverse effects (KU812) of the same compound?
A: without adverse effects

Q: And the “bioavailability value (BA)” value [7]?
A: 32%

Q: What about the maximal tolerated dose [7] of the same compound?
A: 200 mg/kg/day

Q: With `Cn1cc(C2=C(c3cn(CCCSC(=N)N)c4ccccc34)C(=O)NC2=O)c2ccccc21` [RO 31-8220] as the compound, how does the pIC50 (MAPKAP-K1b) read?
A: 8.52

Q: And the “toxicity to primary melanomas (viability)” value [2]?
A: toxic to all tested primary melanomas

Q: What about the “inhibition of voltage-dependent Na+ channels” value [8] of the same compound?
A: in the micromolar range

Q: What about the tumor growth ([3]; RO 31-8220 3 mg/kg i.p. vs DMSO) of the same compound?
A: inhibited the growth

Q: And the “effect on JNK and glycogen synthase” value [9]?
A: Activates

Q: What about the “effect on MAPK and ERK2” value [9] of the same compound?
A: inhibits

Q: And the pIC50 (S6K1)?
A: 7.42

Q: And the “toxicity to normal cells (viability)” value [4, 11]?
A: not to normal cells

Q: And the pIC50 (PKCα)?
A: 7.48

Q: With `C[C@H]1O[C@@H](O[C@H]2[C@@H](O)C[C@H](O[C@H]3[C@@H](O)C[C@H](O[C@H]4CC[C@@]5(C)[C@H](CC[C@@H]6[C@@H]5C[C@@H](O)[C@]5(C)[C@@H](C7=CC(=O)OC7)CC[C@]65O)C4)O[C@@H]3C)O[C@@H]2C)C[C@H](O)[C@@H]1O` [digoxin] as the compound, how does the “toxicity to primary melanomas (viability)” value [2] read?
A: toxic to all tested primary melanomas

Q: And the half-life [10]?
A: about 36 hours

Q: What about the “plasma concentration at which adverse effects are rare” value [10] of the same compound?
A: < 0.8 ng/mL

Q: What about the “toxicity to normal cells (viability)” value [4] of the same compound?
A: not to normal cells
